Reference: US5952339A, “Pharmaceutical compositions and methods of using nicotinic antagonists for treating a condition or disorder characterized by alteration in normal neurotransmitter release” (priority 1998, dated 1999)
Where two headings read alike, the source gives them in different places.

Columns and labels:
CNS nicotinic receptors [1] = target: T1, CNS nicotinic receptors (Rattus norvegicus, UniProt P09483+P12390); assay: Determination of binding to relevant receptor sites
T1 construct: from tissue
T1 sequence (P09483 31-630): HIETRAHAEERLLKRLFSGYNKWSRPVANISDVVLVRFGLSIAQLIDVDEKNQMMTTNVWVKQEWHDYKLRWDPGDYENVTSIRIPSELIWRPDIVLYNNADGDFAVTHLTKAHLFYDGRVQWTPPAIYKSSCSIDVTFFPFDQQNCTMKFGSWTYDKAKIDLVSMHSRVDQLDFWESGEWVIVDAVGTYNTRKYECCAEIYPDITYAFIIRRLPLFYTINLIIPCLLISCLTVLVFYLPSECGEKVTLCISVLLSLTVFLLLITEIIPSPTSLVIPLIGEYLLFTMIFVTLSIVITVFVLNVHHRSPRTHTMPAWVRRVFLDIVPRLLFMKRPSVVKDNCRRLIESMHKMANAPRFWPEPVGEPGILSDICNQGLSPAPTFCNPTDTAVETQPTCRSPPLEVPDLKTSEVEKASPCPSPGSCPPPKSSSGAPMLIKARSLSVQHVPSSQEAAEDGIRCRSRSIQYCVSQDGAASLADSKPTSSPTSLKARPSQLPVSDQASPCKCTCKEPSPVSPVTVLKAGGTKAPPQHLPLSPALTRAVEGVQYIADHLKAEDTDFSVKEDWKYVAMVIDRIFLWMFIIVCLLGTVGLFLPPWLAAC
T1 sequence (P12390 25-500): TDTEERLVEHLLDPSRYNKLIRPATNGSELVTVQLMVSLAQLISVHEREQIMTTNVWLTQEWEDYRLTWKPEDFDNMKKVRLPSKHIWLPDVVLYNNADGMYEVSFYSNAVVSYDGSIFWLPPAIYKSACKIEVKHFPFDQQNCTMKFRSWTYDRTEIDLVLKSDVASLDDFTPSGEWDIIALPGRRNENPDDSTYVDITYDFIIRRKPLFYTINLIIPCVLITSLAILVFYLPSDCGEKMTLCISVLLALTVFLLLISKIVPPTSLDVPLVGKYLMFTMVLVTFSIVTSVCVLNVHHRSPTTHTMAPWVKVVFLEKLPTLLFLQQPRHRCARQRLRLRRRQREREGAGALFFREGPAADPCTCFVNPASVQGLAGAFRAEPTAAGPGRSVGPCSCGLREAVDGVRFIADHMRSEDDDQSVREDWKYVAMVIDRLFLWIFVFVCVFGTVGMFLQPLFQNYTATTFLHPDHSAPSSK
Procedure: Determination of Binding to Relevant Receptor Sites
Binding of the compounds to relevant receptor sites was determined in accordance with the techniques described in U.S. Pat. No. 5,597,919 to Dull et al. Inhibition constants (Ki values), reported in nM, were calculated from the IC50 values using the method of Cheng et al., Biochem, Pharmacol. 22:3099 (1973).

muscle-type receptors = target: T2, muscle-type receptors (Homo sapiens, UniProt P02708+P07510+Q07001); assay: Determination of interaction with muscle receptors; assay type: biochemical; conditions: percentage of the maximal activation induced by (S)-(-)-nicotine
T2 construct: endogenous in cells
T2 sequence (P02708 21-457): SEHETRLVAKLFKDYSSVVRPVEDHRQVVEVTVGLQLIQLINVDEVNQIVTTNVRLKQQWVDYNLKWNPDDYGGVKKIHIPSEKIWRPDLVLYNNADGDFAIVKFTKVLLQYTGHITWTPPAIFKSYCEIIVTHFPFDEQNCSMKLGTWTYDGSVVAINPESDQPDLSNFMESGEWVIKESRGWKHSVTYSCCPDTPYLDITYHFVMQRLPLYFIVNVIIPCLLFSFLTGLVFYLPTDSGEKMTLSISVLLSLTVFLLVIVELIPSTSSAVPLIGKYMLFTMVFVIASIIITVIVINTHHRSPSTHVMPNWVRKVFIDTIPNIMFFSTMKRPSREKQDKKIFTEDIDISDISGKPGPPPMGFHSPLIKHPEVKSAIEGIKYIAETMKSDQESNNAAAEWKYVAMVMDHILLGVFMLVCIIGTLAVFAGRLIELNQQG
T2 sequence (P11230 24-501, further chain): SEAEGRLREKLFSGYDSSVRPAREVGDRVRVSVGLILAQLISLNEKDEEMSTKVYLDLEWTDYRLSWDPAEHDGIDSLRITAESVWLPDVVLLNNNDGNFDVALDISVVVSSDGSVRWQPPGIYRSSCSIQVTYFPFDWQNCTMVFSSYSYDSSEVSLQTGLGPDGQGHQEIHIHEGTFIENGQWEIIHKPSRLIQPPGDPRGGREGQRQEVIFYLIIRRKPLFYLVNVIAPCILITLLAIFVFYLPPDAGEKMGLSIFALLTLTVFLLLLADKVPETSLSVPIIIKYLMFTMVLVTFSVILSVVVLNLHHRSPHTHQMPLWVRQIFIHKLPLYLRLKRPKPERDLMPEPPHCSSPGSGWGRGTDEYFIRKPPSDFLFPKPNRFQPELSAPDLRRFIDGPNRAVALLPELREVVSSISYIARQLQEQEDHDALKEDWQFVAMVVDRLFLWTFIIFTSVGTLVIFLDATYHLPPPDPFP
T2 sequence (P07510 23-517): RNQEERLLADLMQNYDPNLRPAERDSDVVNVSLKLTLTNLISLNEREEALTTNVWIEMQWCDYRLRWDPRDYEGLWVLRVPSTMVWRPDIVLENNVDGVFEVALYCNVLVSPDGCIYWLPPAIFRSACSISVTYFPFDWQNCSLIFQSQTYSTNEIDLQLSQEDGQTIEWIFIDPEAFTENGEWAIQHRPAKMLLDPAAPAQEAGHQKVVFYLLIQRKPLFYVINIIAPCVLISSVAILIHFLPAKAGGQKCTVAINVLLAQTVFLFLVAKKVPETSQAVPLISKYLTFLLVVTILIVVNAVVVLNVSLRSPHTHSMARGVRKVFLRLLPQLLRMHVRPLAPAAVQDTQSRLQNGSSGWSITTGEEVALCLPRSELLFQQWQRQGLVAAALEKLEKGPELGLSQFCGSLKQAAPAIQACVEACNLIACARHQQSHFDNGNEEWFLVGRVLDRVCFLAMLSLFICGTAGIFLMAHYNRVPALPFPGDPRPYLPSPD
T2 sequence (Q07001 22-517): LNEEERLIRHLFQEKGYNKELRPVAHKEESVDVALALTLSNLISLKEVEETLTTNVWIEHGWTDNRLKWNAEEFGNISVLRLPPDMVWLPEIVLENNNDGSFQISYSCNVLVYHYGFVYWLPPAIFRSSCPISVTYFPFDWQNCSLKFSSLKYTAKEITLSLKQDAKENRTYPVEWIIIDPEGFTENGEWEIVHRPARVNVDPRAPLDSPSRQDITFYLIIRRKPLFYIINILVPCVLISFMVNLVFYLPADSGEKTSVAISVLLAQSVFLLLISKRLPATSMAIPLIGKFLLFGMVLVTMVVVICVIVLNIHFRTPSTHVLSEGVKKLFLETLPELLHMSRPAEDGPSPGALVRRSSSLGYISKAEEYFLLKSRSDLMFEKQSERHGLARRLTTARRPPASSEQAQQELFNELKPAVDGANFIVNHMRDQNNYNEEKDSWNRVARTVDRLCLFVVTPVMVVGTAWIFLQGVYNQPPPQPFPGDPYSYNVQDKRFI
Procedure: Determination of Interaction with Muscle Receptors
(§1) The determination of the interaction of the compounds with muscle receptors was carried out in accordance with the techniques described in U.S. Pat. No. 5,597,919 to Dull et al. The maximal activation for individual compounds (Emax) was determined as a percentage of the maximal activation induced by (S)-(-)-nicotine. Reported Emax values represent the amount released relative to (S)-(-)-nicotine on a percentage basis.

ganglia-type receptors = target: T3, ganglia-type receptors (Rattus norvegicus, UniProt P04757+P12392); assay: Determination of interaction with ganglion receptors; assay type: biochemical; conditions: percentage of the maximal activation induced by (S)-(-)-nicotine
T3 construct: endogenous in cells
T3 sequence (P04757 26-499): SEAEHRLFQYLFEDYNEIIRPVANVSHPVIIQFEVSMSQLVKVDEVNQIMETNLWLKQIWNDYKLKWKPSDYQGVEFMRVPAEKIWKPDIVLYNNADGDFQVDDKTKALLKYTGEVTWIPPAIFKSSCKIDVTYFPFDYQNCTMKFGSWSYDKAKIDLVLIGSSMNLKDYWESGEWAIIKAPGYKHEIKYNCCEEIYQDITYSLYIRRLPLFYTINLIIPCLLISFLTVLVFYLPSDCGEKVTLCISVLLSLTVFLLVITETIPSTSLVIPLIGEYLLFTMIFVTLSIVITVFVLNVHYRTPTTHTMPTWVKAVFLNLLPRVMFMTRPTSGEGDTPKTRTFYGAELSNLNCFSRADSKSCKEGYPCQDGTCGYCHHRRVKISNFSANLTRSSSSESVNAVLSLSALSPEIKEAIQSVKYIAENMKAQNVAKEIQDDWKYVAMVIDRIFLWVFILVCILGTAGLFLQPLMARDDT
T3 sequence (P12392 21-495): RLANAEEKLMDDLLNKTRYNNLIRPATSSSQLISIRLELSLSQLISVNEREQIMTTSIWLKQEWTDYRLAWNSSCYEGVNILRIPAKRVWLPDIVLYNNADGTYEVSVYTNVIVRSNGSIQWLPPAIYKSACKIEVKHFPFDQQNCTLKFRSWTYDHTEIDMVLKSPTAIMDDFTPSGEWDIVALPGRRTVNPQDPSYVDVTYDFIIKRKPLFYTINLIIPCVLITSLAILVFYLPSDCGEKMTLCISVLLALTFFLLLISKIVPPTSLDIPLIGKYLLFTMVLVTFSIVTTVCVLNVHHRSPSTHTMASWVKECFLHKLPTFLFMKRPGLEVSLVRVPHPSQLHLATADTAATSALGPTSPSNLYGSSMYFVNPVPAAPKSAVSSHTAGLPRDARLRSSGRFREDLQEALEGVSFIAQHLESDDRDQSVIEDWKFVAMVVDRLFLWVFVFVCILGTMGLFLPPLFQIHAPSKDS
Procedure: Determination of Interaction with Ganglion Receptors
as §1, with “ganglionic” for “muscle”

dopamine release = assay: Determination of receptor activation/inhibition: dopamine release; assay type: biochemical; conditions: for Emax (dopamine release): amount released relative to (S)-(-)-nicotine or TMA
Procedure: Determination of Receptor Activation/Inhibition and Dopamine Release
Dopamine release was measured using the techniques described in U.S. Pat. No. 5,597,919 to Dull et al. Release is expressed as a percentage of release obtained with a concentration of (S)-(-)-nicotine resulting in maximal effects. Reported EC50 values are expressed in nM, and Emax values represent the amount released relative to (S)-(-)-nicotine or tetramethylammonium ion (TMA), on a percentage basis.
(§2) Reported IC50 values are expressed in nM and represent the concentration resulting in 50% inhibition of agonist induced receptor activation. Emax values represent the amount released relative to (S)-(-)-nicotine on a percentage basis.

CNS nicotinic receptors [2] = target: T1, CNS nicotinic receptors; assay: Isotopic rubidium ion release; assay type: biochemical; conditions: for Emax: read-out: Emax (rubidium ion release)
Procedure: Isotopic rubidium release was measured using the techniques described in Bencherif et al., JPET, 279: 1413-1421 (1996). Reported EC50 values are expressed in nM, and Emax values represent the amount of rubidium ion released relative to 300 uM tetranmethylammonium ion, on a percentage basis.
as §2

[3] = calculated from IC50 values using the method of Cheng et al., read-out: Ki
[4] = read-out: EC50 (rubidium ion release)

SMILES | Ki (CNS nicotinic receptors [1]; [3]) [nM] | Emax (muscle-type receptors) [%] | Emax (ganglia-type receptors) [%] | Emax (dopamine release) (dopamine release) [%] | IC50 (CNS nicotinic receptors [2]) [nM] | EC50 (CNS nicotinic receptors [2]; [4]) [nM] | Emax (CNS nicotinic receptors [2]) [%] | Ki (CNS nicotinic receptors [1]) [nM] | IC50 (dopamine release; 50% inhibition of agonist induced receptor activation) [nM] | EC50 (CNS nicotinic receptors [2]) [nM]
c1cncc(C2C3CC4CC(C3)CN2C4)c1 (stereo not drawn) [Sample No. 1, 1-aza-2-(3-pyridyl)-tricyclo[3.3.1.1^3,7]decane] | 15 | 21 | 27 | 0 | – | – | – | – | – | –
CCOc1cncc(C2C3CC4CC(C3)CN2C4)c1 (stereo not drawn) [Sample No. 4, 1-aza-2-[5-ethoxy-(3-pyridyl)]-tricyclo-[3.3.1.1^3,7]decane] | – | 22 | 0 | 0 | 630 | > 100000 | 0 | 1 | 846 | –
Cl.Cl.Cl.Nc1cncc(C2C3CC4CC(C3)CN2C4)c1 (stereo not drawn) [Sample No. 3, 1-aza-2-[5-amino-(3-pyridyl)]tricyclo[3.3.1.1^3,7]decane trihydrochloride] | 44 | 75 | 17 | 0 | – | – | 0 | – | – | > 100000
Brc1cncc(C2C3CC4CC(C3)CN2C4)c1 (stereo not drawn) [Sample No. 2, 1-aza-2-[5-bromo(3-pyridyl)]tricyclo[3.3.1.1^3,7]decane] | – | 32 | 50 | 0 | – | > 100000 | 0 | 2 | – | –
CC(C)Oc1cncc(C2C3CC4CC(C3)CN2C4)c1 (stereo not drawn) [Sample No. 5, 1-aza-2-[5-isopropoxy-(3-pyridyl)]tricyclo[3.3.1.1^3,7]decane] | – | 114 | 7 | 0 | – | > 100000 | 0 | 24 | – | –
